Results: US9145376B2, “Quinazolinone inhibitors of dynein” (The Rockefeller University, priority 2011, dated 2015)

Assays:
[1] = target: T1, K560, N-terminal fragment of human conventional kinesin (kinesin-1) (Homo sapiens, UniProt P33176); assay: Microtubule surface gliding assay, K560/kinesin-1; format: biochemical; settings: 100 μM
T1 construct: K560, a 560-amino acid N-terminal fragment of human conventional kinesin (kinesin-1); His-tag (C); made in house; host or cells: bacteria
T1 sequence (P33176 1-560): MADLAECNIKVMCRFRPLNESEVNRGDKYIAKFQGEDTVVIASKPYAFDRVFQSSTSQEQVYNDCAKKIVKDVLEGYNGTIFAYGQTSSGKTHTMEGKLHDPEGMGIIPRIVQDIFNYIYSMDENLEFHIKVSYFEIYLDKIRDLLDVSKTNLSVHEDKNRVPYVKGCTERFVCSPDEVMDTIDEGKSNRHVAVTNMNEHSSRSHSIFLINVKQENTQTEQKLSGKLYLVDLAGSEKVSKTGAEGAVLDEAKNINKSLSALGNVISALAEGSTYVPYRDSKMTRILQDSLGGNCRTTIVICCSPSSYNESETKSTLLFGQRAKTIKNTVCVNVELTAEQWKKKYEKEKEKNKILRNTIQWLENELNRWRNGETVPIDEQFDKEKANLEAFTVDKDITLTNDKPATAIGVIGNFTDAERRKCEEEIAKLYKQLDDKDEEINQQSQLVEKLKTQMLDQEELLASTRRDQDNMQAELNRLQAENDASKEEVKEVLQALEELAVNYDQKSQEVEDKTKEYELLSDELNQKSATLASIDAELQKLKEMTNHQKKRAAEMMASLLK
Method: Cytoplasmic dynein was purified from bovine brains as described by Bingham et al. [Methods Enzymol. 298, 171 (1998)]. K560, a 560-amino acid N-terminal fragment of human conventional kinesin (kinesin-1) with a C-terminal His-tag, was expressed in bacteria and purified as described by Woehlke et al., [Cell 90, 207 (1997)]. Motility assays were performed on a Zeiss Axiovert 200M wide-field microscope equipped with a Zeiss 100×/1.45 NA α-Plan-Fluar objective. Data were captured with an EM-CCD camera (iXon DU-897, Andor Technology) with a 0.3-second exposure time and frame rate of 0.5 second^−1. Microtubule gliding assays were performed as described by Kapoor and Mitchison [Proc. Natl. Acad. Sci. U.S.A. 96, 9106 (1999)] with some modifications. An approximately 6 μL flow chamber was filled with motor protein (100 μg/mL dynein or 50 μg/mL K560) in motor dilution buffer (80 mM Pipes, 1 mM EGTA, 2 mM MgCl2, 2 mM DTT, 50 μM ATP, pH 6.8 with KOH). […] After allowing the microtubules to bind to the surface for 5 minutes, the gliding microtubules were visualized by time-lapse fluorescence microscopy. Velocities were measured by kymography using Metamorph software (Molecular Devices), and the velocity for each microtubule was determined from the total distance during the time observed.

Xenopus melanophores = assay: Melanosome aggregation assay; format: cell-based; settings: for melanosome aggregation: melatonin-induced aggregation
Text: Another cytoplasmic dynein 1-dependent process is the aggregation of melanin-containing vesicles in pigment cells, the mechanism by which certain organisms adapt their coloration in response to environmental cues. For example, cytoplasmic dynein 1 transports melanosomes toward the center of Xenopus melanophores stimulated with the small-molecule melatonin, counterbalancing the kinesin-2- and myosin-V-driven dispersal of these pigment granules toward the cell periphery in response to melanocyte-stimulating hormone (MSH). To determine if melanosome trafficking is sensitive to the ciliobrevins, we cultured Xenopus melanophores with MSH to uniformly disperse their melanosomes and then treated them with melatonin and various concentrations of test compounds.
Immortalized Xenopus melanophores were cultured in 0.7×L15 medium supplemented with 10% fetal bovine serum, 30 mg/L L-glutamine, and 5 mg/L insulin. The cell were cultured on poly-D-lysine-coated coverslips in 12-well plates for 12 to 24 hours prior to the melanosome aggregation assay. On the day of the experiment, the melanophores were cultured in serum-free medium for 30 minutes, stimulated with 100 nM melanocyte-stimulating hormone (MSH) to uniformly disperse the melanosomes, and then incubated with medium containing individual compounds or DMSO for 10 minutes. Melanosome aggregation was then induced by treating the cells with 10 nM melatonin in the presence of the test compound. The melanophores were either imaged immediately by time-lapse microscopy or fixed after 30 minutes with 0.7×PBS containing 4% paraformaldehyde.
The cells were then washed several times with medium containing melatonin alone and imaged.

SMILES	K560/kinesin-1-dependent microtubule gliding [1]	melanosome aggregation (Xenopus melanophores; concentrations up to 40 μM)	melanosome aggregation (Xenopus melanophores; 10 μM dose)	reversibility of effect on melanosome aggregation (washout) (Xenopus melanophores; washout into medium containing melatonin alone)
N#C/C(C(=O)c1ccc(Cl)cc1Cl)=C1\NC(=O)c2ccccc2N1 [Example 1, 3-(2,4-dichlorophenyl)-3-oxo-2-(4-oxo-3,4-dihydroquinazolin-2(1H)-ylidene)propanenitrile]	Neither ciliobrevin significantly affected			
N#C/C(C(=O)c1ccccc1)=C1\NC(=O)c2ccccc2N1 [Example 16, 3-oxo-2-(4-oxo-3,4-dihydroquinazolin-2(1H)-ylidene)-3-phenylpropanenitrile]		no discernible effect		
N#C/C(C(=O)c1ccc(Cl)cc1Cl)=C1\NC(=O)c2ccc(Cl)cc2N1 [Example 31, 2-(7-chloro-4-oxo-3,4-dihydroquinazolin-2(1H)-ylidene)-3-(2,4-dichlorophenyl)-3-oxo-propanenitrile]	Neither ciliobrevin significantly affected		significantly inhibited melanosome aggregation	completely reversible
